Series [1] concerns Pseudomonas aeruginosa efflux+ (MB9798), IMP-1. In kind it is cell-based. Also on record: Concentration of metallo-β-lactamase inhibitor which restores susceptibility of efflux + (MB9798) strain to imipenem: unit not given here. The settings on record: C, D serine β-lactamase inhibitor closely related to relebactam; for P. aeruginosa expressing IMP-1, efflux + (MB9798) MITC95: concentration restoring susceptibility to imipenem at 2 μg/mL in the presence of a class A; for Concentration of metallo-β-lactamase inhibitor which restores susceptibility of efflux + (MB9798) strain to imipenem: imipenem at 2 μg/mL, in the presence of a class A. In short, it runs like this:
(§1)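 Steps: add fixed imipenem and/or ceftazidime (usually CLSI breakpoint) and fixed AmpC-directed class A/C inhibitor to microbroth MIC wells; titrate MBL inhibitor; record concentration regaining susceptibility for each PAO1-derived strain; divide efflux+ by efflux− value.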

In another series the target is VIM-1 (Pseudomonas aeruginosa (strain ATCC 15692 / DSM 22644 / CIP 104116 / JCM 14847 / LMG 12228 / 1C / PRS 101 / PAO1), UniProt A0A0F7KYQ8). Put plainly: biochemical. The following applies: CCF2-FA substrate, 30 pM enzyme, 2 hours at 25° C. In short, it runs like this: (§2)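 Fluorescence assay of metallo-β-lactamase activity using CCF2-FA, a cephalosporin-linked 7-hydroxycoumarin–fluorescein substrate. Inhibitor, enzyme and substrate were incubated together for 2 hours at 25° C. IC50 came from a 4-parameter fit of inhibition versus inhibitor concentration.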

Series [2] relates to Pseudomonas aeruginosa MB9798 vs MB9799. Put shortly:
as §1

Series [3] deals with Pseudomonas aeruginosa efflux− (MB9799), IMP-1. In kind it is cell-based. The settings on record: C, D serine β-lactamase inhibitor closely related to relebactam; for P. aeruginosa expressing IMP-1, efflux − (MB9799) MITC95: concentration restoring susceptibility to imipenem at 2 μg/mL in the presence of a class A; for Concentration of metallo-β-lactamase inhibitor which restores susceptibility of efflux − (MB9799) strain to imipenem: imipenem at 2 μg/mL, in the presence of a class A. Put shortly:
as §1

For the next series, the target named is IMP-1 (Serratia marcescens, UniProt P52699). Put plainly: biochemical. In kind it is biochemical. The following applies: fluorescence assay, CCF2-FA substrate, 2 pM enzyme, 2 hours at 25° C.; read-out: IMP-1 IC50. In short, it runs like this:
as §2

The target of a further series is NDM-1 (Klebsiella pneumoniae, UniProt C7C422). Put plainly: biochemical. In kind it is biochemical. The following applies: fluorescence assay, CCF2-FA substrate, 1 pM enzyme, 2 hours at 25° C.; read-out: NDM-1 IC50. Put shortly:
as §2

The subject of series [4] is Escherichia coli expressing NDM-1 (CLB30005, CLB30016). Type of series: cell-based. The following applies: with imipenem 1 μg/ml; for Escherichia coli MITC95: NDM-1 strain, 95% inhibition of growth; for Escherichia coli expressing NDM-1 (CLB30016) MITC95: 95% inhibition of bacterial growth. Put shortly: (§3)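 Clinical strains grown overnight on blood agar at 35°C, colonies suspended in saline, diluted 1:100 into 1.1×CAMHB. Test compound titrated with imipenem at 1 μg/ml; incubated 22–24 h at 35°C, growth read by absorbance.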

The test system of series [5] is Serratia marcescens expressing IMP-1 (CL5741). In kind it is cell-based. The settings on record: for Serratia marcescens MITC95: IMP-1 strain CL5741, with imipenem 1 μg/ml, 95% inhibition of growth; for Serratia marcescens expressing IMP-1 (CL5741) MITC95: with imipenem 1 μg/ml, 95% inhibition of bacterial growth. In short, it runs like this:
as §3

Series [6] relates to Klebsiella pneumoniae expressing VIM-1 (IHMA599644). Type of series: cell-based. The following applies: for Klebsiella pneumoniae MITC95: VIM-1 strain IHMA599644, with imipenem 1 μg/ml, 95% inhibition of growth; for Klebsiella pneumoniae expressing VIM-1 (IHMA599644) MITC95: with imipenem 1 μg/ml, 95% inhibition of bacterial growth. In short, it runs like this: as §3
The mark [7] stands for this setting: ratio MITC95 PA_9798/MITC95 PA_9799.
The mark [8] stands for this setting: fluorescence assay, read-out: VIM-1 IC50.
The mark [9] stands for this setting: fold difference between efflux+ (MB9798) and efflux− (MB9799) strains, imipenem at 2 μg/mL.

Like-named read-outs stand apart in the source and are kept apart here.

IMP-1, sequence (P52699 whole entry, looked up, species assumed): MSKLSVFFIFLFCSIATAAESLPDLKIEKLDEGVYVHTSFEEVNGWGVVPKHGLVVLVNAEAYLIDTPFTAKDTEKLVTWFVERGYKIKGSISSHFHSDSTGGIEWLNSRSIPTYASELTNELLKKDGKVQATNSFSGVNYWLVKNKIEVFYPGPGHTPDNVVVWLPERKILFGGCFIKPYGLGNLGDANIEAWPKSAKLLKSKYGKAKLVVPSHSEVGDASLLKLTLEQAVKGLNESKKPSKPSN
NDM-1, sequence (C7C422 whole entry, looked up, species assumed): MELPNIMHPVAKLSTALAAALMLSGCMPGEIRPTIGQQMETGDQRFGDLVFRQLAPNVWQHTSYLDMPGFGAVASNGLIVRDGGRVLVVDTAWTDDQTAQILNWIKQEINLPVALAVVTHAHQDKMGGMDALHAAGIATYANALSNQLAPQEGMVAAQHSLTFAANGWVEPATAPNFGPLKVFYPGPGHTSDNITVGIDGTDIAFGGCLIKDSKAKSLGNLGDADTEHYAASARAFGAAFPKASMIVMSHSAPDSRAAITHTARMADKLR

In general, IC50 refers to the point on the concentration scale where inhibition reaches its midpoint. With `NCCNS(=O)(=O)c1ccc(-c2cccc(NC[C@H](O)CN)c2)c(-c2nn[nH]n2)c1S(N)(=O)=O` [Example 351, (R)-3′-((3-amino-2-hydroxypropyl)amino)-N4-(2-aminoethyl)-2-(2H-tetrazol-5-yl)-[1,1′-biphenyl]-3,4-disulfonamide], in series [1], the “P. aeruginosa expressing IMP-1, efflux + (MB9798) MITC95” value amounted to 1.563 µM. The IC50 on VIM-1 (VIM-1 IC50, fluorescence assay) is 453 pM; on IMP-1, 3550 pM; on NDM-1, 1360 pM. The Efflux ratio in [2] (setting [7]) was found to be 2.00. The “P. aeruginosa expressing IMP-1, efflux − (MB9799) MITC95” value in [3] came out at 0.7813 µM. Besides, the “Escherichia coli MITC95” value in series [4] was 0.7813 µM. The “Serratia marcescens MITC95” value in series [5] is 1.563 µM. For the same molecule, in series [6], the “Klebsiella pneumoniae MITC95” value came to 1.563 µM.
Consider `NCc1nc2cc(-c3ccc(S(=O)(=O)NC[C@@H](O)CN)c(S(N)(=O)=O)c3-c3nn[nH]n3)ccc2[nH]1` [Example 465], for which the “Concentration of metallo-β-lactamase inhibitor which restores susceptibility of efflux + (MB9798) strain to imipenem” value in series [1] is reported as 0.7813. Further, the IC50 on VIM-1 (setting [8]) amounted to 133 pM; at IMP-1 it was 1150 pM; at NDM-1 it was 223 pM. The Efflux ratio in [2] (setting [9]) turned out to be 1.00. Further, the “Concentration of metallo-β-lactamase inhibitor which restores susceptibility of efflux − (MB9799) strain to imipenem” value in series [3] turned out to be 0.7813. Also, the “Escherichia coli MITC95” value in [4] was found to be 0.7813 µM. Further, the “Serratia marcescens MITC95” value in series [5] is 1.563 µM. Moreover, the “Klebsiella pneumoniae MITC95” value in [6] is 1.563 µM.
For the molecule `NCC(CN)NS(=O)(=O)c1ccc(-c2cccc(C3N=NC(N)=N3)c2)c(-c2nn[nH]n2)c1S(N)(=O)=O` (stereo not drawn) [Example 229, 3′-(5-amino-3H-1,2,4-triazol-3-yl)-N4-(1,3-diaminopropan-2-yl)-2-(2H-tetrazol-5-yl)-[1,1′-biphenyl]-3,4-disulfonamide], in [1], the “P. aeruginosa expressing IMP-1, efflux + (MB9798) MITC95” value worked out at 1.563 µM. Besides, the IC50 on VIM-1 (setting [8]) came out at 120 pM; at IMP-1, 173 pM; on NDM-1, 30.8 pM. In series [2] (setting [7]), the Efflux ratio is on record as 0.50. Besides, the “P. aeruginosa expressing IMP-1, efflux − (MB9799) MITC95” value in series [3] was 3.125 µM. For the same molecule, in series [4], the “Escherichia coli expressing NDM-1 (CLB30016) MITC95” value amounted to 0.7813 µM. For the same molecule, the “Serratia marcescens expressing IMP-1 (CL5741) MITC95” value in series [5] came to 3.125 µM. For the same molecule, in [6], the “Klebsiella pneumoniae expressing VIM-1 (IHMA599644) MITC95” value came out at 3.125 µM.
For `Nc1ccc(-c2ccc(S(=O)(=O)NC[C@@H]3CCCN3)c(S(N)(=O)=O)c2-c2nn[nH]n2)cn1` [Example 488, (S)-4-(6-aminopyridin-3-yl)-N1-(pyrrolidin-2-ylmethyl)-3-(2H-tetrazol-5-yl)benzene-1,2-disulfonamide], the “Concentration of metallo-β-lactamase inhibitor which restores susceptibility of efflux + (MB9798) strain to imipenem” value in [1] turned out to be 0.7813. The IC50 is 210 pM on VIM-1 (setting [8]), 355 pM at IMP-1 and 206 pM on NDM-1. The Efflux ratio in series [2] (setting [9]) is 1.00. The “Concentration of metallo-β-lactamase inhibitor which restores susceptibility of efflux − (MB9799) strain to imipenem” value in [3] is given as 0.7813. Besides, the “Escherichia coli MITC95” value in series [4] worked out at 0.1953 µM. Moreover, the “Serratia marcescens MITC95” value in [5] was 0.1953 µM. The “Klebsiella pneumoniae MITC95” value in series [6] is 1.563 µM.
Consider `Nc1nc2c(-c3ccc(S(=O)(=O)NC4CNC4)c(S(N)(=O)=O)c3-c3nn[nH]n3)cccc2s1` [Example 146, 4-(2-aminobenzo[d]thiazol-4-yl)-N1-(azetidin-3-yl)-3-(2H-tetrazol-5-yl)benzene-1,2-disulfonamide], for which, in [1], the “P. aeruginosa expressing IMP-1, efflux + (MB9798) MITC95” value is 0.3906 µM. The IC50 at VIM-1 (setting [8]) stood at 224 pM; at IMP-1, 356 pM; at NDM-1, 37.2 pM. In addition, the Efflux ratio in series [2] (setting [7]) is 0.50. Moreover, the “P. aeruginosa expressing IMP-1, efflux − (MB9799) MITC95” value in series [3] amounted to 0.7813 µM. Further, in [4], the “Escherichia coli expressing NDM-1 (CLB30016) MITC95” value worked out at 3.125 µM. Also, the “Serratia marcescens expressing IMP-1 (CL5741) MITC95” value in series [5] worked out at 0.7813 µM. The “Klebsiella pneumoniae expressing VIM-1 (IHMA599644) MITC95” value in series [6] amounted to 1.563 µM.
